Measurements published in patent US6737383B1, “Herbicidal oxadiazolidines” (priority 1999, dated 2004).

Columns and labels:
pigweed = assay: Test B pre/postemergence pigweed; type: in vivo, Amaranthus retroflexus
Outline: (§1)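 Response is a visual 0-to-10 score relative to untreated plants, where 0 means no effect and 10 means complete control, taken twelve to sixteen days after application. Treatments went onto soil at planting and onto foliage of 1- to 4-leaf plants, using a surfactant-containing non-phytotoxic solvent.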

smallflower flatsedge = assay: Test B flood test smallflower flatsedge; type: in vivo, Cyperus difformis
Outline: (§2)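 Each value is a visual injury score relative to controls, with 10 meaning complete control and 0 no effect. Evaluation took place twelve to sixteen days after the 2-leaf-stage plants were treated and kept in the greenhouse.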

purple nutsedge = assay: Test B pre/postemergence purple nutsedge; type: in vivo, Cyperus rotundus
Outline: as §1

rape = assay: Test B pre/postemergence rape; type: in vivo, Brassica napus
Outline: as §1

crabgrass = assay: Test B pre/postemergence crabgrass; type: in vivo, Digitaria sanguinalis
Outline: as §1

sugar beet = assay: Test B pre/postemergence sugar beet; type: in vivo, Beta vulgaris
Outline: as §1

velvetleaf = assay: Test B pre/postemergence velvetleaf; type: in vivo, Abutilon theophrasti
Outline: as §1

blackgrass = assay: Test B pre/postemergence blackgrass; type: in vivo, Alopecurus myosuroides
Outline: as §1

wild oat = assay: Test B pre/postemergence wild oat; type: in vivo, Avena fatua
Outline: as §1

soybean = assay: Test B pre/postemergence soybean; type: in vivo, Glycine max
Outline: as §1

surinam grass = assay: Test B pre/postemergence surinam grass; type: in vivo, Brachiaria decumbens
Outline: as §1

corn = assay: Test B pre/postemergence corn; type: in vivo, Zea mays
Outline: as §1

bedstraw = assay: Test B pre/postemergence bedstraw; type: in vivo, Galium aparine
Outline: as §1

wheat = assay: Test B pre/postemergence wheat; type: in vivo, Triticum aestivum
Outline: as §1

bamyardgrass = assay: Test B flood test barnyardgrass; type: in vivo, Echinochloa crus-galli
Outline: as §2

cocklebur = assay: Test B pre/postemergence cocklebur; type: in vivo, Xanthium strumarium
Outline: as §1

[1] = Preemergence, Rate 62 g/ha, scale of 0 to 10 where 0 is no effect and 10 is complete control
[2] = Preemergence, Rate 125 g/ha, 0 is no effect, 10 is complete control
[3] = Preemergence, Rate 250 g/ha, scale 0 to 10, 0 is no effect, 10 is complete control
[4] = Preemergence, Rate 500 g/ha, scale 0 to 10 (0 no effect, 10 complete control)
[5] = Rate 62 g/ha, Postemergence, scale of 0 to 10 where 0 is no effect and 10 is complete control
[6] = Rate 125 g/ha, Postemergence, scale 0 to 10
[7] = Rate 500 g/ha, Postemergence, scale 0 to 10
[8] = Rate 62 g/ha, headed Pre-emergence (flood test species), scale 0 to 10 (0 no effect, 10 complete control)
[9] = Rate 125 g/ha, Pre-emergence, flood test species, scale 0 to 10 where 0 is no effect and 10 is complete control
[10] = Rate 250 g/ha, Pre-emergence, flood-test species, scale 0 to 10, 0 is no effect, 10 is complete control

COc1nc(OC)nc(N(C(=O)n2oc(=O)n(C(C)C)c2=O)C(C)C)n1 [Compound 182]
0: Redroot pigweed plant response rating (pigweed; [1]) | Redroot pigweed plant response rating (0 to 10 scale) (pigweed; [2]) | Redroot pigweed plant response rating (pigweed; [3]) | Redroot pigweed plant response rating (pigweed; [4]) | Redroot pigweed plant response rating (pigweed; [5]) | Redroot pigweed plant response rating (pigweed; [6]) | Plant response rating (0 to 10; 0 is no effect, 10 is complete control), Redroot pigweed (pigweed; Rate 250 g/ha, Postemergence) | Redroot pigweed plant response rating (pigweed; [7]) | S. Flatsedge plant response rating (smallflower flatsedge; [8]) | S. Flatsedge plant response rating (smallflower flatsedge; [9]) | S. Flatsedge plant response rating (smallflower flatsedge; [10]) | S. Flatsedge plant response rating (smallflower flatsedge; Rate 500 g/ha, Pre-emergence, flood test species, scale 0 to 10 (0 no effect, 10 complete control)) | Nutsedge plant response rating (purple nutsedge; [1]) | Nutsedge plant response rating (0 to 10 scale) (purple nutsedge; [2]) | Nutsedge plant response rating (purple nutsedge; [3]) | Nutsedge plant response rating (purple nutsedge; [4]) | Nutsedge plant response rating (purple nutsedge; [5]) | Nutsedge plant response rating (purple nutsedge; [6]) | Plant response rating (0 to 10; 0 is no effect, 10 is complete control), Nutsedge (purple nutsedge; Rate 250 g/ha, Postemergence) | Nutsedge plant response rating (purple nutsedge; [7]) | Rape plant response rating (rape; [1]) | Rape plant response rating (0 to 10 scale) (rape; [2]) | Rape plant response rating (rape; [3]) | Rape plant response rating (rape; [4]) | Rape plant response rating (rape; [5]) | Rape plant response rating (rape; [6]) | Plant response rating (0 to 10; 0 is no effect, 10 is complete control), Rape (rape; Rate 250 g/ha, Postemergence) | Rape plant response rating (rape; [7]) | Crabgrass plant response rating (crabgrass; [1]) | Crabgrass plant response rating (0 to 10 scale) (crabgrass; [2]) | Crabgrass plant response rating (crabgrass; [3]) | Crabgrass plant response rating (crabgrass; [4]) | Crabgrass plant response rating (crabgrass; [5]) | Crabgrass plant response rating (crabgrass; [6]) | Plant response rating (0 to 10; 0 is no effect, 10 is complete control), Crabgrass (crabgrass; Rate 250 g/ha, Postemergence) | Crabgrass plant response rating (crabgrass; [7]) | Sugarbeets plant response rating (sugar beet; [1]) | Sugarbeets plant response rating (0 to 10 scale) (sugar beet; [2]) | Sugarbeets plant response rating (sugar beet; [3]) | Sugarbeets plant response rating (sugar beet; [4]) | Sugarbeets plant response rating (sugar beet; [5]) | Sugarbeets plant response rating (sugar beet; [6]) | Plant response rating (0 to 10; 0 is no effect, 10 is complete control), Sugarbeets (sugar beet; Rate 250 g/ha, Postemergence) | Sugarbeets plant response rating (sugar beet; [7]) | Velvetleaf plant response rating (velvetleaf; [1]) | Velvetleaf plant response rating (velvetleaf; [3]) | Velvetleaf plant response rating (velvetleaf; [4]) | Velvetleaf plant response rating (velvetleaf; [6]) | Plant response rating (0 to 10; 0 is no effect, 10 is complete control), Velvetleaf (velvetleaf; Rate 250 g/ha, Postemergence) | Velvetleaf plant response rating (velvetleaf; [7]) | Blackgrass plant response rating (blackgrass; [1]) | Blackgrass plant response rating (0 to 10 scale) (blackgrass; [2]) | Blackgrass plant response rating (blackgrass; [3]) | Blackgrass plant response rating (blackgrass; [4]) | Blackgrass plant response rating (blackgrass; [5]) | Blackgrass plant response rating (blackgrass; [6]) | Plant response rating (0 to 10; 0 is no effect, 10 is complete control), Blackgrass (blackgrass; Rate 250 g/ha, Postemergence) | Blackgrass plant response rating (blackgrass; [7]) | Wild oats plant response rating (wild oat; [1]) | Wild oats plant response rating (wild oat; [3]) | Wild oats plant response rating (wild oat; [4]) | Wild oats plant response rating (wild oat; [6]) | Plant response rating (0 to 10; 0 is no effect, 10 is complete control), Wild oats (wild oat; Rate 250 g/ha, Postemergence) | Wild oats plant response rating (wild oat; [7]) | Soybean plant response rating (soybean; [1]) | Soybean plant response rating (0 to 10 scale) (soybean; [2]) | Soybean plant response rating (soybean; [3]) | Soybean plant response rating (soybean; [4]) | Soybean plant response rating (soybean; [5]) | Soybean plant response rating (soybean; [6]) | Plant response rating (0 to 10; 0 is no effect, 10 is complete control), Soybean (soybean; Rate 250 g/ha, Postemergence) | Soybean plant response rating (soybean; [7]) | B. signalgrass plant response rating (surinam grass; [1]) | B. signalgrass plant response rating (0 to 10 scale) (surinam grass; [2]) | B. signalgrass plant response rating (surinam grass; [3]) | B. signalgrass plant response rating (surinam grass; [4]) | B. signalgrass plant response rating (surinam grass; [5]) | B. signalgrass plant response rating (surinam grass; Rate 125 g/ha, Postemergence, scale 0 (no effect) to 10 (complete control)) | Plant response rating, B. signalgrass (surinam grass; Rate 250 g/ha, Postemergence, scale 0 to 10, 0 is no effect, 10 is complete control) | B. signalgrass plant response rating (surinam grass; Rate 500 g/ha, Postemergence, scale 0 to 10, 0 no effect, 10 complete control) | Corn plant response rating (corn; [1]) | Corn plant response rating (0 to 10 scale) (corn; [2]) | Corn plant response rating (corn; [3]) | Corn plant response rating (corn; [4]) | Corn plant response rating (corn; [5]) | Corn plant response rating (corn; [6]) | Plant response rating (0 to 10; 0 is no effect, 10 is complete control), Corn (corn; Rate 250 g/ha, Postemergence) | Corn plant response rating (corn; [7]) | Bedstraw plant response rating (bedstraw; [1]) | Bedstraw plant response rating (0 to 10 scale) (bedstraw; [2]) | Bedstraw plant response rating (bedstraw; [3]) | Bedstraw plant response rating (bedstraw; [4]) | Bedstraw plant response rating (bedstraw; [5]) | Bedstraw plant response rating (bedstraw; [6]) | Plant response rating (0 to 10; 0 is no effect, 10 is complete control), Bedstraw (bedstraw; Rate 250 g/ha, Postemergence) | Bedstraw plant response rating (bedstraw; [7]) | Wheat plant response rating (wheat; [1]) | Wheat plant response rating (wheat; [3]) | Wheat plant response rating (wheat; [4]) | Wheat plant response rating (wheat; [6]) | Plant response rating (0 to 10; 0 is no effect, 10 is complete control), Wheat (wheat; Rate 250 g/ha, Postemergence) | Wheat plant response rating (wheat; [7]) | Barnyardgrass plant response rating (bamyardgrass; [8]) | Barnyardgrass plant response rating (bamyardgrass; [9]) | Barnyardgrass plant response rating (bamyardgrass; [10]) | Plant response rating, Barnyardgrass (bamyardgrass; Rate 500 g/ha, headed Pre-emergence (flood test species), scale 0 to 10 (0 no effect, 10 complete control)) | Cocklebur plant response rating (cocklebur; [1]) | Cocklebur plant response rating (0 to 10 scale) (cocklebur; [2]) | Cocklebur plant response rating (cocklebur; [3]) | Cocklebur plant response rating (cocklebur; [4]) | Cocklebur plant response rating (cocklebur; [5]) | Cocklebur plant response rating (cocklebur; [6]) | Plant response rating (0 to 10; 0 is no effect, 10 is complete control), Cocklebur (cocklebur; Rate 250 g/ha, Postemergence) | Cocklebur plant response rating (cocklebur; [7])
